According to paper PMC9454393 (Scientific Reports, 2022):
Entries after “also recorded” stand apart in the source; their conditions may differ. Read-outs that look alike come from different tables or passages of the source.

Legend:
AChE [1] = biological target: T1, AChE (Homo sapiens, UniProt P22303); settings: cited from earlier work; for IC50: read-out: IC50 against AChE
BuChE = settings: read-out: IC50 against BuChE, cited from earlier work
BChE = BChE (Homo sapiens, UniProt P06276); experiment: BChE inhibition, modified Ellman's spectrophotometric assay; type: biochemical
BChE, sequence (P06276 29-602): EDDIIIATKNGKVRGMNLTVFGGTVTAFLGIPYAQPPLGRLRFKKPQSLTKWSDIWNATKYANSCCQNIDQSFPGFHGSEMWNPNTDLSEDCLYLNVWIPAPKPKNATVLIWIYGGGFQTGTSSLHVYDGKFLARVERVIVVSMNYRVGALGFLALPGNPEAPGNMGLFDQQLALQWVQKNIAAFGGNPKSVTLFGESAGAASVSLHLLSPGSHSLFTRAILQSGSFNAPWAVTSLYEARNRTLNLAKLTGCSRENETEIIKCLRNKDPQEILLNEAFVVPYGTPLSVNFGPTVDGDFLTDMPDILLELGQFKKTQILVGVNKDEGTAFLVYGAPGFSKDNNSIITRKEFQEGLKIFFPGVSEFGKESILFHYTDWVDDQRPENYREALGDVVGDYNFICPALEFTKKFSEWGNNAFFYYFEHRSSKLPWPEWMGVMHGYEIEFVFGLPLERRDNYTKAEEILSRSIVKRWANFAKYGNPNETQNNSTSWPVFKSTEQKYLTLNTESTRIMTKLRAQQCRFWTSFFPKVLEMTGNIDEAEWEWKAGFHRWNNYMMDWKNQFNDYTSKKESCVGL
Description: (§1) A previously described modified protocol of Ellman's spectrophotometric assay in clear flat-bottomed, 96-well plates, was used. […] The absorbance of each well was measured at 415 nm using a microplate reader. […]

AChE [2] = biological target: T1, AChE; experiment: Kinetic study of AChE inhibition (Lineweaver-Burk plots, Ellman's method); type: biochemical
Description: The kinetic study of AChE was carried out at five different concentrations (0–8 µM) of compound 4ad by Ellman's method. […]. The inhibition constant Ki was calculated by the plot of slopes versus the corresponding concentrations of the 4ad.

AChE [3] = biological target: T1, AChE; experiment: biochemical; settings: mean ± SD
Description: as §1

[4] = Fig. 2 traditional AChE inhibitors

T1 sequence (P22303 32-614): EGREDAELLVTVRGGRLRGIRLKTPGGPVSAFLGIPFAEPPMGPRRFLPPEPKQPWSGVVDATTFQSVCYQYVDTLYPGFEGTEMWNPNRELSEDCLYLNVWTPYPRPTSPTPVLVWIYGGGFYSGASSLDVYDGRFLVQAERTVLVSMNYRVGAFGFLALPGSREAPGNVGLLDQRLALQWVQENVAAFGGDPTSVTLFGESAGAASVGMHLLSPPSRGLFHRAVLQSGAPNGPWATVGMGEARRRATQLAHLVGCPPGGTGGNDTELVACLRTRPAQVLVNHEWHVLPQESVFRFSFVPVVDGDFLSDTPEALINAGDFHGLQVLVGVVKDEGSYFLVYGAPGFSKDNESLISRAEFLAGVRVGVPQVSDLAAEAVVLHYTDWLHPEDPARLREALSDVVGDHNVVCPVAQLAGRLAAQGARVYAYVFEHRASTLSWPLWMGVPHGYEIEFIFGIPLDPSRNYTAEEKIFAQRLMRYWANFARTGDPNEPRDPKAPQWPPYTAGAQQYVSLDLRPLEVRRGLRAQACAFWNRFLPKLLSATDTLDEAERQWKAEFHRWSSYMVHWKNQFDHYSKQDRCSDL

Compound	IC50 (AChE [1]; [4])	IC50 (BuChE; [4])	IC50 (AChE [1]; Fig. 3)	further results
O=C1c2ccccc2C(=O)N1Cc1cc[n+](Cc2ccc(F)cc2)cc1 [B]	0.77 µM	8.71 µM		
c1ccc(C[n+]2ccc(-c3nc4ccccc4s3)cc2)cc1 [C]	0.014 µM	0.182 µM		
CSc1c([N+](=O)[O-])c(C(C#N)C(N)=O)c(-c2ccc(Cl)cc2)n1-c1ccc(O)cc1 (stereo not shown) [Compound 4ad, 2-(2-(4-chlorophenyl)-1-(4-hydroxyphenyl)-5-(methylthio)-4-nitro-1H-pyrrol-3-yl)-2-cyanoacetamide]				BChE inhibition (in words) (BChE): no significant inhibition; also recorded: inactive; inhibition at 50 µM (BChE; 50 µM compound, mean ± SD, NA = not active): 20 ± 1.33%; type of AChE inhibition (AChE [2]; Lineweaver-Burk plots, Km and Vmax reduced with increasing inhibitor concentration): uncompetitive; Ki (AChE [2]; estimated from plot of Km versus concentrations of 4ad (0-8 µM), substrate acetylthiocholine 0.1-1 mM, read-out: inhibition constant, Ki): 2.84 µM; inhibition at 50 µM (AChE [3]; 50 µM compound, NA = not active): 89.8 ± 2.36%; IC50 (AChE [3]): 2.95 ± 1.31 µM
O=C(NC1CCN(Cc2ccccc2)CC1)c1cc(-c2cccc([N+](=O)[O-])c2)on1 [F]	16.1 µM	15.2 µM		
CN1CCC2COc3ccccc3C21 (stereo not shown) [H]			7.75 µM	IC50 (BuChE; Fig. 3): 7.23 µM
CCOC(=O)c1[nH]c(-c2ccccc2)cc1-c1ccccc1 [I]			128 µM	Ki (AChE [1]; Fig. 3, read-out: Ki against AChE): 104 ± 15.4 µM
